Results as given in ChEMBL document CHEMBL4828715, “Discovery, Structure-Activity Relationships, and In Vivo Evaluation of Novel Aryl Amides as Brain Penetrant Adaptor Protein 2-Associated Kinase 1 (AAK1) Inhibitors for the Treatment of Neuropathic Pain” (J Med Chem, 2021).

Tests used:
[1] = molecular target: AP2-associated protein kinase 1 (Homo sapiens, UniProt Q2M2I8); experiment: Inhibition of recombinant GST-Xa-tagged human AAK1 (30 to 330 residues) using 5-FAM-labelled Alla-KEEQSQITSQVTGQIGWR-NH2 peptide as substrate incubated for 3 hrs in presence of ATP by electrophoretic analysis
[2] = Metabolic stability in human liver microsomes assessed as parent compound remaining at 0.5 uM incubated for 10 mins in presence of NADPH by LC-MS/MS analysis; type: ADME, Microsome; conditions: read-out: Stability
[3] = Metabolic stability in rat liver microsomes assessed as parent compound remaining at 0.5 uM incubated for 10 mins in presence of NADPH by LC-MS/MS analysis; type: ADME, Microsome; conditions: read-out: Stability
[4] = Metabolic stability in mouse liver microsomes assessed as parent compound remaining at 0.5 uM incubated for 10 mins in presence of NADPH by LC-MS/MS analysis; type: ADME, Microsome; conditions: read-out: Stability

Sequence of AP2-associated protein kinase 1 (Q2M2I8 whole entry, the tested form may be a part): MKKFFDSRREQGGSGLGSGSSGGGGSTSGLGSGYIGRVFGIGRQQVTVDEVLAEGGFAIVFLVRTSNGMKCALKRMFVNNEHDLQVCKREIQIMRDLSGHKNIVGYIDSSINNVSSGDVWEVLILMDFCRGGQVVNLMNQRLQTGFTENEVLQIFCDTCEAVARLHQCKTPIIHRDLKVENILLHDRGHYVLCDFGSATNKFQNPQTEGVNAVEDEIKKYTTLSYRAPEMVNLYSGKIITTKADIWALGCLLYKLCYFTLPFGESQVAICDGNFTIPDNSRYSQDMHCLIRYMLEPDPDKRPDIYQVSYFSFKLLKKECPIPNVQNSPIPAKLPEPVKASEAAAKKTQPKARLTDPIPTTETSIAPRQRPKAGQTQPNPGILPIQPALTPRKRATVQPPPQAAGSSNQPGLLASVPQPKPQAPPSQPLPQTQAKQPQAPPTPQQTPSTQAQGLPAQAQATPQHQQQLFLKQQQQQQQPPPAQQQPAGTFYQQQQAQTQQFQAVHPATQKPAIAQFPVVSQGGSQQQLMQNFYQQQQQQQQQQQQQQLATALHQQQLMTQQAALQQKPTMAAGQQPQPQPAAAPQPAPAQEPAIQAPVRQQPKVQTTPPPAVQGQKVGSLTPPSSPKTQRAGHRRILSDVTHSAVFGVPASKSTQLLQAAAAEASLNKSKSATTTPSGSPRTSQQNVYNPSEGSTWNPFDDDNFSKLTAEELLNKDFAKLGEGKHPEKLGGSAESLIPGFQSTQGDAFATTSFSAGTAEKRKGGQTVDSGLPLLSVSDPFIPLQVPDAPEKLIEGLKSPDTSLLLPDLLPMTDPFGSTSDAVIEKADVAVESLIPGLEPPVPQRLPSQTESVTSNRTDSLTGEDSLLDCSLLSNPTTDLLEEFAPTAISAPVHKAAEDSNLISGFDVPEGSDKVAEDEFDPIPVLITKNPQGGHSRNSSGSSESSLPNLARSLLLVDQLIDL

IC50 [1] [nM]	remaining at 10 min, 0.5 µM [2] [%]	remaining at 10 min, 0.5 µM [3] [%]	remaining at 10 min, 0.5 µM [4] [%]	Compound
71	75	62	80	COc1cc(NC(=O)[C@H](N)CCC(C)C)ccc1-c1cnco1
920	79	79	87	COc1cc(NC(=O)[C@H](N)CC(C)C)ccc1-n1cncn1
450	69	22	24	CNc1cc(-c2ccc(NC(=O)[C@H](N)CC(C)C)cc2OC)ccn1
240	73	89	74	COc1cc(NC(=O)[C@H](N)CC(C)C)ccc1-c1ccnc(Cl)c1
19	71	40	53	COc1cc(NC(=O)[C@@H](N)CC(C)C)ccc1-c1cnco1
10200				COc1cc(NC(=O)[C@H](N)CC(C)C)ccc1-c1cccnc1
110	99	74	70	COc1cc(NC(=O)[C@H](N)CC(C)C)ccc1-c1ccnnc1
49	84	87	44	COc1cc(NC(=O)[C@H](N)CC(C)C)ccc1-c1cn[nH]n1
85	91	77	65	COc1cc(NC(=O)[C@H](N)CC(C)C)ccc1-c1ccncc1
150	96	89	73	COc1cc(NC(=O)[C@H](N)CC(C)C)ccc1-c1ccnc(N)c1
3900				COc1cc(NC(=O)[C@H](N)CC(C)C)ccc1-c1cnn(C)c1
290	71	52	40	COc1cc(NC(=O)[C@H](N)CC(C)C)ccc1-c1ccncn1
5700				COc1cc(NC(=O)[C@H](N)CC(C)C)ccc1-c1cncnc1
	92	86	87	COc1cc(NC(=O)[C@H](N)CC(C)C)ccc1-n1ccnc1

Continued, compound first:

Compound	IC50 [1] [nM]	remaining at 10 min, 0.5 µM [2] [%]	remaining at 10 min, 0.5 µM [3] [%]	remaining at 10 min, 0.5 µM [4] [%]
CCOc1cc(NC(=O)[C@H](N)CC(C)C)ccc1-c1cnco1	13	64	60	54
CC(C)C[C@@H](N)C(=O)Nc1ccc(-c2cnco2)c(C#N)c1	72	64	50	57
COc1cc(NC(=O)[C@H](N)c2ccccc2)ccc1-c1cnco1	42	63	60	75
CCc1cc(NC(=O)[C@H](N)CC(C)C)ccc1-c1cnco1	100	88	70	45
CC(C)C[C@@H](N)C(=O)Nc1ccc(-c2cnco2)c(OC(F)(F)F)c1		69	79	53
CC[C@@H](N)C(=O)Nc1ccc(-c2cnco2)c(OC)c1	120	81	70	46
COc1cc(NC(=O)CC2CCCC2)ccc1-c1cnco1	80	64	58	46
COc1cc(NC(=O)[C@@H](C)N)ccc1-c1cnco1	1300	100	100	97
Cc1cc(NC(=O)[C@H](N)CC(C)C)ccc1-c1cnco1	48	74	74	43
CCC[C@@H](N)C(=O)Nc1ccc(-c2cnco2)c(OC)c1	90	87	63	49
CC[C@@H](C)[C@@H](N)C(=O)Nc1ccc(-c2cnco2)c(OC)c1	31	86	62	81
COc1cc(NC(=O)[C@H]2NCCC[C@H]2C(C)C)ccc1-c1cnco1	360	19	24	1
COc1cc(NC(=O)C(CN)CC(C)C)ccc1-c1cnco1 (stereo unspecified)		97	63	78
CC(C)C[C@@H](N)C(=O)Nc1ccc(-c2cnco2)cc1	170	87	71	45
COc1cc(NC(=O)[C@H](N)C2CCCC2)ccc1-c1cnco1	13	84	73	63
CC(C)C[C@@H](N)C(=O)Nc1ccc(-c2cnco2)c(F)c1	43	78	68	30
CCCC[C@@H](N)C(=O)Nc1ccc(-c2cnco2)c(OC)c1	65	87	76	65
COc1cc(NC(=O)CCC(C)C)ccc1-c1cnco1	80	61	46	33
COc1cc(NC(=O)[C@H](N)[C@H](C)O)ccc1-c1cnco1	410	85	77	91
COc1cc(NC(=O)[C@H](N)C(C)C)ccc1-c1cnco1		84	42	40
COc1cc(NC(=O)[C@H](N)CC2CCCCC2)ccc1-c1cnco1	480	68	63	78
COc1cc(NC(=O)[C@H](N)C2CCCCC2)ccc1-c1cnco1	18	69	66	67
COc1cc(NC(=O)[C@H](N)Cc2ccccc2)ccc1-c1cnco1	630	68	49	56
CCCC[C@H](N)C(=O)Nc1ccc(-c2cnco2)c(OC)c1	260	65	54	43
COc1cc(N(C)C(=O)[C@H](N)CC(C)C)ccc1-c1cnco1	12800			
COc1cc(NC(=O)C[C@@H](N)C(C)C)ccc1-c1cnco1	127	82	4	7
CN[C@H](CC(C)C)C(=O)Nc1ccc(-c2cnco2)c(OC)c1	46	53	39	14
COc1cc(NC(=O)[C@H](N)CC(C)(C)C)ccc1-c1cnco1	85		76	65
